Assay results as given in article PMC12865225 (Clinical and Translational Science, 2026).

Tests used:
OATP1B1 = target: T1, OATP1B1 (Homo sapiens, UniProt Q9Y6L6); experiment: OATP1B1 inhibition with fluorescent substrate 2′,7′-dichlorofluorescein in HEK293 cells; format: cell-based; conditions: 1 µM 2′,7′-dichlorofluorescein, 30 min preincubation
T1 construct: expressed in transfected cells; host or cells: HEK293 (recombinant baculovirus-mediated transduction)
T1 sequence (Q9Y6L6 1-691): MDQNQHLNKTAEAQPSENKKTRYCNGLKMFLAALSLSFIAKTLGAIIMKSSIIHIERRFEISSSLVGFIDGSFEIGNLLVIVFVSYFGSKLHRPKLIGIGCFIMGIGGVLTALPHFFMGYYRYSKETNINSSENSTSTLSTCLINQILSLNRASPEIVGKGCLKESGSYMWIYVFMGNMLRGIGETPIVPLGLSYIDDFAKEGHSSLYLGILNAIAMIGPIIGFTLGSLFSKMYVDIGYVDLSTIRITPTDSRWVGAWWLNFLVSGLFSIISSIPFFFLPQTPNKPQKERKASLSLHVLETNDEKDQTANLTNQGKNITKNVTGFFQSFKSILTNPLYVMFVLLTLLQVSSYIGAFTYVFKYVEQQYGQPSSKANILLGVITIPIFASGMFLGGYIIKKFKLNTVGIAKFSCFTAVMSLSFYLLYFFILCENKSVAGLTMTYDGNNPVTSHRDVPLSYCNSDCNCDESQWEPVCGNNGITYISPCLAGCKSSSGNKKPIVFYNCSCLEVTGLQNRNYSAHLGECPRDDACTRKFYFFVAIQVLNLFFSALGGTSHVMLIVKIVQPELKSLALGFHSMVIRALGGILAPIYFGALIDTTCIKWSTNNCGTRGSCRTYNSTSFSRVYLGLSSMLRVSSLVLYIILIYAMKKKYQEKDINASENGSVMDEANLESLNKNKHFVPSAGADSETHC
Protocol: 8- (2- [Fluoresceinyl]aminoethylthio)adenosine- 3', 5'- cyclic monophosphate (8-Fluo-cAMP) was acquired from Biolog Life Science Institute (Bremen, Germany), 4′,5′-dibromofluorescein was acquired from Sigma-Aldrich (St. Louis, MO, USA) and 2′,7′-dichlorofluorescein was acquired from Santa Cruz Biotechnology (Dallas, TX, USA).
Inhibition studies with fluorescent substrates in OATP transduced HEK293 cells The concentrations of fluorescent probe substrates were 1 µM 2′,7′-dichlorofluorescein for OATP1B1, 2.5 µM 8-Fluo-cAMP for OATP1B3 and 1 µM 4′,5′-dibromofluorescein for OATP2B1, and these concentrations were selected to be within or below of previously reported […]
reported linear ranges of transport for these substrate-transporter combinations.1,2,4 8-Fluo-cAMP was dissolved in ultrapure water, while dimethyl sulfoxide (DMSO) was used for all other compounds. […] For the quantification of fluorescent substrates, cells were lysed with 120 µl of lysis solution (1% Triton X-100, 5 mM EDTA, 150 mM sodium chloride and 150 mM TRIC-hydrochloride and adjusted to pH 8 with sodium hydroxide) for 30 min at 300 RPM shaking before transferring 80 µl of samples to a transparent 96-well plate containing 20 µl of 0.5 M sodium hydroxide. […] The plates were measured with a fluorescent plate reader (Varioskan LUX from ThermoFisher Scientific). […]

OAT2 = test system: T2, OAT2; experiment: Uptake transport assay in OAT2-expressing HEK293 cells; format: cell-based, human; conditions: 2 and 50 μM, 10 min
T2 construct: expressed in transfected cells; host or cells: HEK293 (recombinant baculovirus-mediated transduction)
Protocol: The human transporters OATP1B1, OATP1B3, OATP2B1, and OAT1‐OAT4 and a negative control protein (enhanced yellow fluorescent protein, eYFP) were transiently expressed in human embryonic kidney 293 (HEK293) cells by recombinant baculovirus‐mediated transduction. Baculoviruses carrying human genes for the transporters were prepared as reported previously. HEK293 cells were cultured in DMEM containing 10% fetal bovine serum at 37°C and 5% CO2 and passaged two to three times per week. For the transport studies, 0.05 × 10^6 cells for 48‐well plates (OATPs) or 0.06 × 10^6 cells for 24‐well plates (OATs) were seeded onto cell‐culture treated well plates coated with poly‐D‐lysine. After 1 day, cells were transduced to produce recombinant proteins by changing media to DMEM containing 30 μL (48‐well plates) or 60 μL (24‐well plates) of recombinant baculovirus and 3 mM (OATs) or 5 mM (OATPs) sodium butyrate in a total media volume of 500 μL. The cells were cultured for a further 2 days before the transport assays.
For the transport studies, media were removed and cells were washed once with warm transport uptake buffer (TP‐buffer—pH 7.4 HBSS with 25 mM HEPES and 4 mM sodium bicarbonate). Each experiment included triplicate (OATP) or duplicate (OAT) samples for every test condition. […]

IC50 at 5 min (OATP1B1; human, HEK293 cells transduced to express OATP1B1, pH 7.4, probe 2′,7′-dichlorofluorescein 1 µM) [µM] | transport by OAT2 (OAT2) | IC50 (OATP1B1; 5 min) [µM] | SMILES
3.59 | transported | – | Cc1onc(-c2c(Cl)cccc2Cl)c1C(=O)N[C@@H]1C(=O)N2[C@@H]1SC(C)(C)[C@@H]2C(=O)O [Dicloxacillin]
– | transported | 9.28 | Cc1onc(-c2c(F)cccc2Cl)c1C(=O)N[C@@H]1C(=O)N2[C@@H]1SC(C)(C)[C@@H]2C(=O)O [Flucloxacillin]
